US4272529A, “O-Alcoxycarbonylphenyl esters of anthranilic acid with therapeutical activity, method for their preparation and related pharmaceutical composition” (Simes S.p.A., priority 1979, dated 1981)
“And” between values parts separate entries of the source, which are not always exact repeats. Equal entries are not always repeated. Where two headings read alike, the source gives them in different places.

Assays:
[1] = tested on: carrageenin induced edema in the rat; assay: Inhibition of the carrageenin induced edema in the rat, further series (right rear paw vs left rear paw); type: in vivo; conditions: for Inhibition of the carrageenin induced edema: 3 hours after carrageenin
Procedure: The volume difference between the two paws was compared with the values of a control group. In this case too, the carrageenin was injected one hour after the oral administration of the substances being tested as an aqueous suspension; the edema was evaluated 3 hours after the carrageenin injection.

[2] = tested on: adjuvant induced arthritis in the rat; assay: Adjuvant induced arthritis in the developing phase; type: in vivo, Lewis rats; conditions: for Paw volume, injected paw (3rd day) / Paw volume, non injected paw (14th day): unit assumed
Procedure: In the first one, relating to the developing arthritis (Table 4), groups of six Lewis rats have been tested for each dosage; a group was used as the control. Suspensions of the compound being tested were administered for 14 days, starting on the same day of the adjuvant inoculation (0.3 mg of Mycobacterium butyricum in 0.1 ml of mineral oil) in the plantar surface of the right rear paw. The body weights and the volumes of both paws were measured at the third and fourteenth days; the body weights were taken as the toxicity indexes; the paw volumes were used for the calculation of the percent inhibition of the swelling as determined by the adjuvant induced arthritis (D. Walz et al., J. Pharmacol. Exper. Therap., 178, 223, 1971).

[3] = tested on: adjuvant induced arthritis in the rat; conditions: for Non injected paw, 18th day, inhibition % / Non injected paw, 18th day, volume: daily 14th to 18th day
Text: (§1) According to the second experimental model of adjuvant induced arthritis, there were studied the effects of the tested compounds in the disease already developed for 14 days; the substances were daily administered to groups of six rats for each dosage, from the 14th to the 18th day. […] There was also investigated the irritating property of the compound with respect to the gastric tissues in the rat.

[4] = tested on: gastric tissues in the rat
Procedure: as §1
The substances were administered as an aqueous suspension and the animals ware sacrificed after either 4 or 24 hours; the stomachs were removed, opened, washed under tap water and examined.
As regards the 4 hour test (Table 7), the following scoring was used, relating to the hemorrhage degree:
1=one or two points of light hemorrhage
2=some points of light hemorrhage
4=very serious hemorrhages.
In this case too the sum of the scores of three rats for each dosage is reported.

Toxicity in the rat = conditions: in vivo
Procedure: In the rat too the toxicity of compound I is very low (4,500 mg/kg).

[5] = tested on: carragenin induced edema in the paw of rat; assay: Carragenin induced edema in the paw of rat, 50% inhibiting oral dose; type: in vivo; conditions: for ED50: 1 hour before carrageenin, 3 to 4 hours after carrageenin
Procedure: The edema was induced by injecting the carrageenin (0.1 ml of the 1% suspension in physiological solution) in the plantar aponeurosis of the rear paw of the rat one hour after the oral administration of the tested substances; the edema inhibition was evaluated, 3 to 4 hours after the carrageenin injection, from the difference between the volumes of the paw before and after the carragenin injection with respect to a group of control animals.

[6] = tested on: gastric tissues in the rat; assay: Acute gastric irritation in the rat (24 hours); type: in vivo; conditions: for Acute gastric irritation score: sum of scores (0-4) of three rats
Procedure: The following score scale was used for the 24 hour test (Table 6): 0=no lesion or hemorrhage 1=one or two light lesions with hemorrhage 2=some light lesions with hemorrhage 3=some lesions with hemorrhage. […] 4=very serious lesions with hemorrhage. There were used three rats per each dosage and the sum of the scores was made.

mouse = conditions: in vivo
in vivo = conditions: mouse, po

## CC(=O)Oc1ccccc1C(=O)O [Acetylsalicylic acid, acetylsalicylic acid]
[1]; 50 mg/kg os
  Inhibition of the carrageenin induced edema: 12%
[1]; 100 mg/kg os
  Inhibition of the carrageenin induced edema: 35%
[1]; 200 mg/kg os
  Inhibition of the carrageenin induced edema: 43%
[2]; 100 mg/kg os
  Inhibition %, injected paw (3rd day): 30%
  Inhibition %, non injected paw (14th day): 33%
  Paw volume, injected paw (3rd day): 1.65 mL
  Paw volume, non injected paw (14th day): 1.49 mL
[2]; 200 mg/kg os
  Inhibition %, injected paw (3rd day): 40%
  Inhibition %, non injected paw (14th day): 63%
  Paw volume, injected paw (3rd day): 1.53 mL
  Paw volume, non injected paw (14th day): 1.26 mL
[3]; 100 mg/kg os
  Non injected paw, 18th day, inhibition %: 37%
  Non injected paw, 18th day, volume: 2.10
[3]; 200 mg/kg os
  Non injected paw, 18th day, inhibition %: 47%
  Non injected paw, 18th day, volume: 1.93
[4]; 150 mg/kg os, 4 hours, sum of hemorrhage scores (0-4) of three rats
  Acute gastric irritation score: 7

## COC(=O)c1ccccc1OC(=O)c1ccccc1Nc1cccc(C(F)(F)F)c1 [Compound I, N-m-trifluoromethyl-phenylanthranilate of O-methoxycarbonylphenyl]
Toxicity in the rat
  LD50: 4500 mg/kg
[5]
  ED50: 176 mg/kg and 420 µmol/kg
[5]; in terms of molar doses
  Anti-inflammatory activity (in words): like that of the flufenamic acid and higher than that of the methyl salicylate and that of the equimolar mixture of methyl salicylate and of flufenamic acid
[1]; 1 mg/kg os
  Inhibition of the carrageenin induced edema: 0%
[1]; 1.5 mg/kg os
  Inhibition of the carrageenin induced edema: 24%
[1]; 5 mg/kg os
  Inhibition of the carrageenin induced edema: 21%
[1]; 10 mg/kg os
  Inhibition of the carrageenin induced edema: 34%
[1]; 25 mg/kg os
  Inhibition of the carrageenin induced edema: 42%
[1]; 50 mg/kg os
  Inhibition of the carrageenin induced edema: 52%
[1]; Rattus norvegicus, po, os, dose for which a 30% inhibition is obtained, read-out: ED30 (approximately)
  ED30: ~8 mg/kg
[1]; rat, oral, compared with reference drugs
  Activity in carrageenin induced edema (in words): higher than that of aspirin and phenylbutazone, and lower than that of indomethacin
[2]; 5 mg/kg os
  Inhibition %, injected paw (3rd day): 48%
  Inhibition %, non injected paw (14th day): 10%
  Paw volume, injected paw (3rd day): 1.5 mL
  Paw volume, non injected paw (14th day): 1.64 mL
[2]; 10 mg/kg os
  Inhibition %, injected paw (3rd day): 53%
  Inhibition %, non injected paw (14th day): 47%
  Paw volume, injected paw (3rd day): 1.53 mL
  Paw volume, non injected paw (14th day): 1.47 mL
[2]; 25 mg/kg os
  Inhibition %, injected paw (3rd day): 36%
  Inhibition %, non injected paw (14th day): 35%
  Paw volume, injected paw (3rd day): 1.79 mL
  Paw volume, non injected paw (14th day): 1.67 mL
[2]; index of poor toxicity
  Increase of the weight of the rats (in words): normal
[2]; rat, in vivo
  Inhibiting effect in developing arthritis (in words): strong inhibiting effect
[3]; 5 mg/kg os
  Non injected paw, 18th day, inhibition %: 27%
  Non injected paw, 18th day, volume: 2.16
[3]; 10 mg/kg os
  Non injected paw, 18th day, inhibition %: 46%
  Non injected paw, 18th day, volume: 1.82
[3]; 25 mg/kg os
  Non injected paw, 18th day, inhibition %: 100%
  Non injected paw, 18th day, volume: 1.04
[3]; compared with reference drugs
  Activity in already developed arthritis (in words): more active than acetylsalicylic acid and than phenylbutazone
[6]; 25 mg/kg os
  Acute gastric irritation score: 1
[6]; 50 mg/kg os
  Acute gastric irritation score: 1
[6]; 100 mg/kg os
  Acute gastric irritation score: 2
[6]; 200 mg/kg os
  Acute gastric irritation score: 1
[6]; 400 mg/kg os
  Acute gastric irritation score: 1
[6]; 800 mg/kg os
  Acute gastric irritation score: 3
[6]; 1600 mg/kg os
  Acute gastric irritation score: 2
[6]; compared with reference drugs
  Ulcerogenic / gastric irritating action (in words): highly less ulcerogenic than indomethacin and than acetylsalicylic acid
[4]; rat, in vivo
  Ulcerogenic action (in words): highly less ulcerogenic than indomethacin and than acetylsalicylic acid
mouse
  Acute toxicity (in words): relevantly less toxic than the reference substances as well as than their mixture
In vivo
  LD50: 9500 mg/kg and 22800 µmol/kg

## O=C(O)c1ccccc1Nc1cccc(C(F)(F)F)c1 [Flufenamic acid, flufenamic acid]
[5]
  ED50: 112 mg/kg and 400 µmol/kg
In vivo
  LD50: 875 mg/kg and 3100 µmol/kg

## COC(=O)c1ccccc1O [Methyl salicylate, methyl salicylate]
[5]
  ED50: 289 mg/kg and 1900 µmol/kg
In vivo
  LD50: 1160 mg/kg and 7600 µmol/kg

## CCCCC1C(=O)N(c2ccccc2)N(c2ccccc2)C1=O [Phenylbutazone, phenylbutazone]
[1]; 50 mg/kg os
  Inhibition of the carrageenin induced edema: 34%
[2]; 25 mg/kg os
  Inhibition %, injected paw (3rd day): 39%
  Inhibition %, non injected paw (14th day): 42%
  Paw volume, injected paw (3rd day): 1.66 mL
  Paw volume, non injected paw (14th day): 1.52 mL
[3]; 25 mg/kg os
  Non injected paw, 18th day, inhibition %: 46%
  Non injected paw, 18th day, volume: 1.95

## COc1ccc2c(c1)c(CC(=O)O)c(C)n2C(=O)c1ccc(Cl)cc1 [Indomethacin, indomethacin]
[1]; 5 mg/kg os
  Inhibition of the carrageenin induced edema: 40%
[2]; 1 mg/kg os
  Inhibition %, injected paw (3rd day): 39%
  Inhibition %, non injected paw (14th day): 32%
  Paw volume, injected paw (3rd day): 1.63 mL
  Paw volume, non injected paw (14th day): 1.55 mL
[3]; 1 mg/kg os
  Non injected paw, 18th day, inhibition %: 38%
  Non injected paw, 18th day, volume: 2.06
[6]; 40 mg/kg os
  Acute gastric irritation score: 5
